Measurements published in ChEMBL document CHEMBL1155401, “The development of benzimidazoles as selective rho kinase inhibitors” (Bioorg Med Chem Lett, 2010).

Columns and labels:
[1] = Inhibition of ROCK by enzyme-coupled luciferase-kinase assay
[2] = Inhibition of PKA
[3] = Selectivity ratio of IC50 for PKA to IC50 to ROCK
Cytochrome P450 2C9 = Cytochrome P450 2C9 (Homo sapiens, UniProt P11712); assay: Inhibition of CYP2C9; type: ADME
Cytochrome P450 2D6 = Cytochrome P450 2D6 (Homo sapiens, UniProt P10635); assay: Inhibition of CYP2D6; type: ADME
Cytochrome P450 3A4 = Cytochrome P450 3A4 (Homo sapiens, UniProt P08684); assay: Inhibition of CYP3A4; type: ADME
Cytochrome P450 1A2 = molecular target: T1, Cytochrome P450 1A2 (Homo sapiens, UniProt P05177); assay: Inhibition of CYP1A2; type: ADME
T1 sequence (P05177 whole entry): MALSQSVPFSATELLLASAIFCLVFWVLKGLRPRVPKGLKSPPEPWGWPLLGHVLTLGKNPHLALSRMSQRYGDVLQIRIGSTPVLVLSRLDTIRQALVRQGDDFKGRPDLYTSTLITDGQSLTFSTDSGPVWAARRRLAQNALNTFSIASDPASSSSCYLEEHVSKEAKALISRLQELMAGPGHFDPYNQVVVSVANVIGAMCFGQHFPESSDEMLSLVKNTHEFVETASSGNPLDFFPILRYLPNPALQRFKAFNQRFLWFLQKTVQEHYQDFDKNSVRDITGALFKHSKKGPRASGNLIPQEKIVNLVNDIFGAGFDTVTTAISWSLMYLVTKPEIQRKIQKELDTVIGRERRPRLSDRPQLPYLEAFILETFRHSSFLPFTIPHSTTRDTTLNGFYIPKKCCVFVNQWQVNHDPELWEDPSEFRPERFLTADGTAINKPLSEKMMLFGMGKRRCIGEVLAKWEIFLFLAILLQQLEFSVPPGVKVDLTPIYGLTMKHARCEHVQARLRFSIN

[4] = Half life in human liver microsomes; type: ADME, Microsome
[5] = Clearance in rat at 2 mg/kg, po or 1 mg/kg, iv; type: ADME, organism-based; details: in vivo
[6] = Volume of distribution at steady state in rat at 2 mg/kg, po or 1 mg/kg, iv; type: ADME, organism-based; details: in vivo, read-out: Vdss
[7] = Half life in rat at 2 mg/kg, po or 1 mg/kg, iv; type: ADME, organism-based; details: in vivo
Rattus norvegicus = assay: AUC in rat at 2 mg/kg, po; type: ADME, organism-based, Plasma; design: dose 2 mg/kg, route oral; details: in vivo
[8] = Cmax in rat at 2 mg/kg, po; type: ADME, organism-based; design: dose 2 mg/kg, route oral; details: in vivo
[9] = Oral bioavailability in rat at 2 mg/kg; type: ADME, organism-based; details: in vivo
[10] = Inhibition of ROCK by myosin light chain phosphorylation assay

Sequence of Cytochrome P450 2C9 (P11712 whole entry): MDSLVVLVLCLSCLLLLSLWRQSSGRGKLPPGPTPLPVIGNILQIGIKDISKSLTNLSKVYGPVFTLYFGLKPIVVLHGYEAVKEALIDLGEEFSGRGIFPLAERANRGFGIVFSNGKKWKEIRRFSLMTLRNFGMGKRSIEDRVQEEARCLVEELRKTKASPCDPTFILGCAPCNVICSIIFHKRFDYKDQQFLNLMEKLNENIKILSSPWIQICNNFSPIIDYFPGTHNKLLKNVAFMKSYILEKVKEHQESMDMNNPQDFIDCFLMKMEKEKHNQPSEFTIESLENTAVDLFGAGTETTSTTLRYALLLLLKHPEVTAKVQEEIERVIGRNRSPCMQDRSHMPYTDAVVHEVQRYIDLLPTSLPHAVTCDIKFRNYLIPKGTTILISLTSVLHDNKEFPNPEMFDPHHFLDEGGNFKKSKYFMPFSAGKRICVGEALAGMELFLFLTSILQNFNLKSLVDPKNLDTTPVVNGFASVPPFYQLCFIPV
Sequence of Cytochrome P450 2D6 (P10635 whole entry): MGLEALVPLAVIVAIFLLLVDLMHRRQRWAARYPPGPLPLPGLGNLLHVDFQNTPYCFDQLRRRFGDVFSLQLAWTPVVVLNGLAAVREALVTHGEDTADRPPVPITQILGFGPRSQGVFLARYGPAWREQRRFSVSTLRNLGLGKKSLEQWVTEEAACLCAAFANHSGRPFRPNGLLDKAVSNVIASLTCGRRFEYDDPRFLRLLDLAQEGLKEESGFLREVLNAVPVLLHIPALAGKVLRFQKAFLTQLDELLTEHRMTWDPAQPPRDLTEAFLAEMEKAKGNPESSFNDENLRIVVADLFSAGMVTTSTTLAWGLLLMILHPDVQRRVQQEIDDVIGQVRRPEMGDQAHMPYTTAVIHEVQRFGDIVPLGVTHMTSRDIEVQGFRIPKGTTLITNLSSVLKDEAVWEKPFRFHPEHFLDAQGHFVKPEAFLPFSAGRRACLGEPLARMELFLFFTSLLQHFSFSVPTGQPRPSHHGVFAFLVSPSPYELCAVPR
Sequence of Cytochrome P450 3A4 (P08684 whole entry): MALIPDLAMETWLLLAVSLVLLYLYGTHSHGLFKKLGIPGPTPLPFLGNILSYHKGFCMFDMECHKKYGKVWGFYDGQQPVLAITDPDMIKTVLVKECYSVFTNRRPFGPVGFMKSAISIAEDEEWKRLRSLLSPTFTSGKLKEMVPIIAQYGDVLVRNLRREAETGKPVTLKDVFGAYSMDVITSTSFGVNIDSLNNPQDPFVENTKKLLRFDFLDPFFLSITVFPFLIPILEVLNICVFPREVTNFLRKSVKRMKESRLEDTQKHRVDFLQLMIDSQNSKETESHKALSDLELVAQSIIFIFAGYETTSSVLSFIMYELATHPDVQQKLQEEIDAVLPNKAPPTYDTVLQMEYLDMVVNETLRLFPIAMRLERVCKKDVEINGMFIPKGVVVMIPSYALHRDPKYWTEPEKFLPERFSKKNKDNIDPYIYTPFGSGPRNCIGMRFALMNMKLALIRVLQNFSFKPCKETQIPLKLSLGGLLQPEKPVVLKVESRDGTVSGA

SMILES | IC50 [1] [nM] | IC50 [2] [nM] | Ratio IC50 [3] | Activity (Cytochrome P450 2C9) | Activity (Cytochrome P450 2D6) | Activity (Cytochrome P450 3A4) | Activity (Cytochrome P450 1A2) | half-life [4] [h] | clearance [5] [mL/min/kg] | Vd [6] [L/kg] | half-life [7] [h] | AUC (Rattus norvegicus) [µM·h] | Cmax [8] [nM] | bioavailability [9] [%] | IC50 [10] [nM]
COc1cccc2c1CC(c1nc3ccc(-c4ccnc(N)n4)cc3[nH]1)CO2 (centres undefined) | 25 | 310 | 12 |  |  |  |  |  |  |  |  |  |  |  | 
Nc1nccc(-c2ccc3nc(C4COc5ccc(C(=O)NCc6cccnc6)cc5C4)[nH]c3c2)n1 (centres undefined) | 0.78 | 82 | 105 |  |  |  |  |  |  |  |  |  |  |  | 
CN(C)C(=O)c1ccc2c(c1)CC(c1nc3ccc(-c4ccnc(N)n4)cc3[nH]1)CO2 (centres undefined) | 129 | 1730 | 13 |  |  |  |  |  |  |  |  |  |  |  | 
Nc1nccc(-c2ccc3nc(C4COc5ccc(C(=O)NCCO)cc5C4)[nH]c3c2)n1 (centres undefined) | 2.8 | 370 | 132 |  |  |  |  |  |  |  |  |  |  |  | 
CN(C)CCCNC(=O)c1ccc2c(c1)CC(c1nc3ccc(-c4ccnc(N)n4)cc3[nH]1)CO2 (centres undefined) | 1.2 | 272 | 227 |  |  |  |  | 1.67 | 27 | 4.6 | 3 | 0.01 | 3 | < 1 | 2700
COc1ccc2c(c1)OCC(c1nc3ccc(-c4ccnc(N)n4)cc3[nH]1)C2 (centres undefined) | 95 | 435 | 4.6 |  |  |  |  |  |  |  |  |  |  |  | 
COc1cccc2c1OCC(c1nc3ccc(-c4ccnc(N)n4)cc3[nH]1)C2 (centres undefined) | 256 | 232 | 0.9 |  |  |  |  |  |  |  |  |  |  |  | 
Nc1nccc(-c2ccc3nc(C4COc5ccc(C(=O)NC6CCCCC6)cc5C4)[nH]c3c2)n1 (centres undefined) | 1.1 | 20 | 18 |  |  |  |  |  |  |  |  |  |  |  | 
Nc1nccc(-c2ccc3nc(C4COc5ccc(C(=O)NCc6ccccc6)cc5C4)[nH]c3c2)n1 (centres undefined) | < 1 | 78 | 78 |  |  |  |  |  |  |  |  |  |  |  | 
Nc1nccc(-c2ccc3nc(C4COc5ccc(C(=O)NCCc6ccccn6)cc5C4)[nH]c3c2)n1 (centres undefined) | 0.43 | 305 | 709 |  |  |  |  |  |  |  |  |  |  |  | 
Nc1nccc(-c2ccc3nc(C4COc5ccc(C(=O)NCCc6ccccc6)cc5C4)[nH]c3c2)n1 (centres undefined) | 1.7 | 700 | 412 |  |  |  |  |  |  |  |  |  |  |  | 
COc1ccc2c(c1)CC(c1nc3ccc(-c4ccnc(N)n4)cc3[nH]1)CO2 (centres undefined) | 1.7 | 485 | 285 |  |  |  |  |  |  |  |  | 1.9 |  |  | 85
Nc1nccc(-c2ccc3nc(C4COc5ccc(C(=O)NCCc6cccnc6)cc5C4)[nH]c3c2)n1 (centres undefined) | 0.25 | 442 | 1770 |  |  |  |  | 0.025 | 58 | 5.9 | 3.6 | 0.08 | 5 | 6 | 250
CN(C)CCNC(=O)c1ccc2c(c1)CC(c1nc3ccc(-c4ccnc(N)n4)cc3[nH]1)CO2 (centres undefined) | 1.5 | 328 | 219 |  |  |  |  |  |  |  |  |  |  |  | 

Results, then the compound that gave them:

IC50 [1] [nM] | IC50 [2] [nM] | Ratio IC50 [3] | Activity (Cytochrome P450 2C9) | Activity (Cytochrome P450 2D6) | Activity (Cytochrome P450 3A4) | Activity (Cytochrome P450 1A2) | half-life [4] [h] | clearance [5] [mL/min/kg] | Vd [6] [L/kg] | half-life [7] [h] | AUC (Rattus norvegicus) [µM·h] | Cmax [8] [nM] | bioavailability [9] [%] | IC50 [10] [nM] | SMILES
240 | 1380 | 6 | Active | Active | Active | Active |  |  |  |  |  |  |  |  | Cc1cc(-c2ccncc2)cc2[nH]c(C3COc4ccccc4O3)nc12 (centres undefined)
27 | 509 | 19 | Active | Active | Active | Active |  |  |  |  |  |  |  |  | c1ccc2c(c1)OCC(c1nc3ccc(-c4ccncc4)cc3n1C1CCOCC1)O2 (centres undefined)
> 20000 | > 20000 |  | Active | Active | Active | Active |  |  |  |  |  |  |  |  | Cc1c(-c2ccncc2)cc2[nH]c(C3COc4ccccc4O3)nc2c1C (centres undefined)
8 | 195 | 24 |  |  |  |  |  |  |  |  |  |  |  |  | Nc1nccc(-c2ccc3nc(C4COc5ccccc5C4)[nH]c3c2)n1 (centres undefined)
1.7 | 252 | 148 | Active | Active | Active | Active |  |  |  |  |  |  |  |  | c1ccc2c(c1)CC(c1nc3ccc(-c4ccncc4)cc3[nH]1)CO2 (centres undefined)
1780 | 3130 | 2 | Active | Active | Active | Active |  |  |  |  |  |  |  |  | Cn1c(C2COc3ccccc3O2)nc2cc(-c3ccncc3)ccc21 (centres undefined)
680 | 8810 | 13 | Active | Active | Active | Active |  |  |  |  |  |  |  |  | c1ccc(CCn2c(C3COc4ccccc4O3)nc3ccc(-c4ccncc4)cc32)cc1 (centres undefined)
4.1 | 187 | 46 | Active | Active | Active | Active |  |  |  |  |  |  |  |  | COc1c(-c2ccncc2)ccc2nc(C3COc4ccccc4C3)[nH]c12 (centres undefined)
190 | 1000 | 5 | Active | Active | Active | Active |  |  |  |  |  |  |  |  | c1ccc(Cn2c(C3COc4ccccc4O3)nc3ccc(-c4ccncc4)cc32)cc1 (centres undefined)
183 | 1590 | 9 | Active | Active | Active | Active |  |  |  |  |  |  |  |  | COc1ccc2c(c1)CC(c1nc3c(OCCCO)cc(-c4ccncc4)cc3[nH]1)CO2 (centres undefined)
2970 | 3080 | 1 | Active | Active | Active | Active |  |  |  |  |  |  |  |  | FC(F)(F)c1cc2nc(C3COc4ccccc4O3)[nH]c2cc1-c1ccncc1 (centres undefined)
11 | 310 | 28 | Active | Active | Active | Active |  |  |  |  |  |  |  |  | COCCn1c(C2COc3ccccc3O2)nc2ccc(-c3ccncc3)cc21 (centres undefined)
440 | > 20000 | > 45 | Active | Active | Active | Active |  |  |  |  |  |  |  |  | COc1ccc2c(c1)CC(c1nc3c(OCCN(C)C)cc(-c4ccncc4)cc3[nH]1)CO2 (centres undefined)
24 | 850 | 35 | Active | Active | Active | Active |  |  |  |  |  |  |  |  | c1ccc2c(c1)OCC(c1nc3ccc(-c4ccncc4)cc3n1CC1CC1)O2 (centres undefined)
7.5 | 355 | 47 | Active | Active | Active | Active |  |  |  |  |  |  |  |  | c1ccc2c(c1)OCC(c1nc3ccc(-c4ccncc4)cc3[nH]1)O2 (centres undefined)
130 | 6120 | 47 | Active | Active | Active | Active |  |  |  |  |  |  |  |  | c1ccc2c(c1)OCC(c1nc3ccc(-c4ccncc4)cc3n1CCN1CCOCC1)O2 (centres undefined)
15 | 1960 | 131 | Active | Active | Active | Active |  |  |  |  |  |  |  |  | Cn1c(C2COc3ccccc3O2)nc2ccc(-c3ccncc3)cc21 (centres undefined)
